Data on two compounds can be found in article PMC3781056, “New Pyrazolopyrimidine Inhibitors of Protein Kinase D as Potent Anticancer Agents for Prostate Cancer Cells” (PLoS ONE, 2013).

The structures appear in SMILES notation. Read-outs that look alike come from different tables or passages of the source.

Assay [1] concerns PC3 prostate cancer cells. Description: Cell proliferation assay (cell counts). It counts as cell-based. The following applies: 30 µM, starting at day 2 to day 6. How it is done: PKD has emerged as a promising therapeutic target for cancer. […] Cell proliferation was determined by treating the cells at 30 µM concentration of agent, and then cell number was counted for six consecutive days in the presence and absence of inhibitor.
PC3 cells were plated in triplicates in 24-well plates. Cells were allowed to attach overnight. […] Cells were counted daily for a total of 5 days. Fresh media and inhibitor were added every 2 days. The means of triplicate determinations were plotted over time. The experiment was repeated twice and results from one representative experiment are shown. […] PC3 cells were seeded into 96-well plates (3000 cells/well) and were then incubated in media containing 0.3–100 µM inhibitors for 72 h. MTT solution was added to each well and incubated for 4 h. Optical density was read at 570 nm to determine cell viability. The IC50 was determined as the mean of two independent experiments for each compound. C. […] Cell cycle distribution was determined by flow cytometry after propidium iodide labeling of fixed cells. Statistical significance was determined by unpaired t-test and is indicated. **, p<0.01; ***, p<0.001. […]
Proliferation of PC3 cells was measured by counting the number of viable cells upon trypan blue staining as previously described. […] The labeled cells were analyzed using a FACSCalibur flow cytometer (BD Biosciences).

The subject of assay [2] is PC3 cells. Description: MTT assay. It is filed as cell-based. How it is done:
PC3 cells were plated in triplicates in 24-well plates. Cells were allowed to attach overnight. […] Cells were counted daily for a total of 5 days. Fresh media and inhibitor were added every 2 days. The means of triplicate determinations were plotted over time. The experiment was repeated twice and results from one representative experiment are shown. […] PC3 cells were seeded into 96-well plates (3000 cells/well) and were then incubated in media containing 0.3–100 µM inhibitors for 72 h. MTT solution was added to each well and incubated for 4 h. Optical density was read at 570 nm to determine cell viability. The IC50 was determined as the mean of two independent experiments for each compound. C. […] Cell cycle distribution was determined by flow cytometry after propidium iodide labeling of fixed cells. Statistical significance was determined by unpaired t-test and is indicated. **, p<0.01; ***, p<0.001. […] The label 1-NA-PP1 is taken from panels A and C, where it is the only substance named in the picture.
PC3 cells were seeded into 96-well plates (3000 cells/well) and allowed to attach overnight. Cells were then incubated in media containing […] inhibitors for 72 h. […] The plate was mix by shaking for 5 min and the optical density was determined at 570 nm.

Assay [3] deals with T1, Recombinant human PKD2 (Homo sapiens, UniProt Q9BZL6).
T1 sequence (Q9BZL6 1-878): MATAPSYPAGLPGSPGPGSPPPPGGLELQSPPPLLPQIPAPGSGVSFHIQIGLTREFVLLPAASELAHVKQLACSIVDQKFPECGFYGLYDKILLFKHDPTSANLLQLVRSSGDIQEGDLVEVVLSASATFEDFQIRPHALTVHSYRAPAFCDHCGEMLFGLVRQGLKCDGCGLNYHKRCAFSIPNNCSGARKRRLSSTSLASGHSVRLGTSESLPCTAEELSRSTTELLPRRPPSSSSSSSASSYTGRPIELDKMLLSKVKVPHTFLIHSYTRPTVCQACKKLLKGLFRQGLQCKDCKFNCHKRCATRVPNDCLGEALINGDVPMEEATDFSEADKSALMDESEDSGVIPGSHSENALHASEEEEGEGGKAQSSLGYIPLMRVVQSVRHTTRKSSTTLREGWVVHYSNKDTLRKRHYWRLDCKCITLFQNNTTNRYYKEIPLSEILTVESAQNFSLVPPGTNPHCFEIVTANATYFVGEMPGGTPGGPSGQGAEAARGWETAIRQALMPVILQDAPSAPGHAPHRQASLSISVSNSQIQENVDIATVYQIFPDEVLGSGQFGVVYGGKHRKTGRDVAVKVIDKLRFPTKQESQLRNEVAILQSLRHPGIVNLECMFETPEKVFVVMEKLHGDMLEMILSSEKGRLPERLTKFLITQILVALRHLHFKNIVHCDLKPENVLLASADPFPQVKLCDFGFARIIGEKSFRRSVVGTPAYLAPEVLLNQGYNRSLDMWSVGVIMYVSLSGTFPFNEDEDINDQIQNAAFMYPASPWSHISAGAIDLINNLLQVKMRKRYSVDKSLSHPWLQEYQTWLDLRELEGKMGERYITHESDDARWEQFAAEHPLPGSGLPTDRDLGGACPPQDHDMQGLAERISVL
Description: Radiometric PKD kinase assay, 10-point IC50. It counts as biochemical.
Description: Recombinant human PKD1, 2, or 3 proteins were incubated in a mixture containing a peptide substrate derived from a PKD substrate, HDAC-5, and 10 different concentrations of the two compounds.
The IC50 values were calculated as the mean ±SEM of at least three independent experiments with triplicate determinations at each concentration of drug in each experiment. The data were plotted as a function of drug concentration and a representative graph is shown.

The target of assay [4] is T2, PKD1 (Homo sapiens, UniProt Q15139).
T2 construct: GST; purchased Enzo Life sciences (Farmingdale, NY)
T2 sequence (Q15139 1-912): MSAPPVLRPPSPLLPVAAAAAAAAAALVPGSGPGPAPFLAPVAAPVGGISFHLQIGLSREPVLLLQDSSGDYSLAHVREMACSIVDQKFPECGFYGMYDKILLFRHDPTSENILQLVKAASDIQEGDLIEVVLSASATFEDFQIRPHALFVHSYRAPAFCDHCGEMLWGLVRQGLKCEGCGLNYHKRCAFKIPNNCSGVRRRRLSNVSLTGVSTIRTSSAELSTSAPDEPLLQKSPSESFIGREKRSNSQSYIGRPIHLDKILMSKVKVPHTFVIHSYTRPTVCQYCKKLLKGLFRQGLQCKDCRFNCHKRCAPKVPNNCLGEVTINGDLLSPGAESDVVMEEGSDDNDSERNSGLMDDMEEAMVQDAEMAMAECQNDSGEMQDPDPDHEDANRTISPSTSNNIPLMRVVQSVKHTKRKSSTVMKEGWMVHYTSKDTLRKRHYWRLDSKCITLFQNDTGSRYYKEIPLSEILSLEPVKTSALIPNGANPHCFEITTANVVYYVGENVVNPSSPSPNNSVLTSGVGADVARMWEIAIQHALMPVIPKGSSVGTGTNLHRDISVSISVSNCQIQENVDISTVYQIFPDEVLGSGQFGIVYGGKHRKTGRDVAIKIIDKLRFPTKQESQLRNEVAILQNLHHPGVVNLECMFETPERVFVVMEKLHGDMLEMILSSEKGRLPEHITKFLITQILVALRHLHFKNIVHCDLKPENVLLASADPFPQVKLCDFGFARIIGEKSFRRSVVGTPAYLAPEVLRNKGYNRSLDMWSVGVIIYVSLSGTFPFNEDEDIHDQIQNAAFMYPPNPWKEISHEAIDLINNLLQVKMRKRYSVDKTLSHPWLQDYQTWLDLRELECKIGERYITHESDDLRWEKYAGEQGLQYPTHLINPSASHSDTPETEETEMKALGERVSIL
The experiment in a line: Radiometric PKD kinase assay, 10-point IC50. It counts as biochemical. How it is done: Phosphorylation of HDAC5 was detected in a kinase reaction having 1 µCi [γ-^32P] […] The reaction was incubated at 30°C for 10 minutes and 25 µL of the reaction was spotted on Whatman P81 filter paper. The filter paper was washed 3 times in 0.5% phosphoric acid, air dried and counted using Beckman LS6500 multipurpose scintillation counter. Percent PKD1 inhibition was graphed using GraphPad Prism software 5.0.

On to `CC(C)(C)n1nc(-c2cccc3ccccc23)c2c(N)ncnc21` [Compound 1-NA-PP1, 1-(t-Butyl)-3-(naphthalen-1-yl)-1H-pyrazolo[3,4-d]pyrimidin-4-amine], for which, in assay [1], the “effect on PC3 cell proliferation (cell counts)” value is recorded as “drastic growth arrest”. In addition, the IC50 in assay [2] (Homo sapiens, PC-3, 72 h, read-out: IC50 for cell death (MTT), PC3 cells, 72 h) was 23300 ± 5700 nM; in assay [2] (read-out: IC50 for cell death (MTT), PC3 cells, 72 h), approximately 20000 nM; in assay [3] (IC50 PKD2, mean ± SEM), 133 nM; in assay [3] (PKD2 IC50, value printed in the figure, representative graph) it was 133 nM.
`O=C(c1ccc(Nc2nccc(-c3cc4ccccc4s3)n2)cc1)N1CCC(N2CCCC2)CC1` [IKK-16, reference compound]: the IC50 in assay [3] (mean ± SEM, read-out: IC50 PKD2) amounted to 115 nM; in assay [3] (value in the figure, representative graph, read-out: PKD2 IC50), 108 nM; in assay [4] (mean ± SEM, read-out: IC50 PKD1) it was 154 nM; in assay [4] (value in the figure, read-out: PKD1 IC50), 162 nM.
